Activity calls are given as the source filed them. The rule behind the calls is not given here.
Tested on: CCRIS mutagenicity, Ames/micronucleus/aberration tests
Experiment: CCRIS mutagenicity studies
[1] = Test System: AMES SALMONELLA TYPHIMURIUM, Strain/Indicator: TA98, Metabolic Activation: NONE, Method: STANDARD PLATE
[2] = Test System: AMES SALMONELLA TYPHIMURIUM, Strain/Indicator: TA98, Metabolic Activation: RAT, LIVER, S-9, AROCLOR 1254, Method: STANDARD PLATE
[3] = Test System: AMES SALMONELLA TYPHIMURIUM, Strain/Indicator: TA100, Metabolic Activation: NONE, Method: STANDARD PLATE
[4] = Test System: AMES SALMONELLA TYPHIMURIUM, Strain/Indicator: TA100, Metabolic Activation: RAT, LIVER, S-9, AROCLOR 1254, Method: STANDARD PLATE
[5] = Test System: AMES SALMONELLA TYPHIMURIUM, Strain/Indicator: TA1535, Metabolic Activation: NONE, Method: STANDARD PLATE
[6] = Test System: AMES SALMONELLA TYPHIMURIUM, Strain/Indicator: TA1535, Metabolic Activation: RAT, LIVER, S-9, AROCLOR 1254, Method: STANDARD PLATE
[7] = Test System: AMES SALMONELLA TYPHIMURIUM, Strain/Indicator: TA1537, Metabolic Activation: NONE, Method: STANDARD PLATE
[8] = Test System: AMES SALMONELLA TYPHIMURIUM, Strain/Indicator: TA1537, Metabolic Activation: RAT, LIVER, S-9, AROCLOR 1254, Method: STANDARD PLATE
[9] = Test System: AMES SALMONELLA TYPHIMURIUM, Strain/Indicator: TA100, Metabolic Activation: NONE, Method: PREINCUBATION
[10] = Test System: AMES SALMONELLA TYPHIMURIUM, Strain/Indicator: TA1535, Metabolic Activation: NONE, Method: PREINCUBATION

Structure (SMILES): CN(CCO)C(=O)Nc1ccccc1
- mutagenic call [1]: inactive; negative
- mutagenic call [2]: inactive; negative
- mutagenic call [3]: inactive; negative
- mutagenic call [4]: inactive; negative
- mutagenic call [5]: inactive; negative
- mutagenic call [6]: inactive; negative
- mutagenic call [7]: inactive; negative
- mutagenic call [8]: inactive; negative
- mutagenic call (Test System: AMES SALMONELLA TYPHIMURIUM, Strain/Indicator: TA1538, Metabolic Activation: NONE, Method: STANDARD PLATE): inactive; negative
- mutagenic call (Test System: AMES SALMONELLA TYPHIMURIUM, Strain/Indicator: TA1538, Metabolic Activation: RAT, LIVER, S-9, AROCLOR 1254, Method: STANDARD PLATE): inactive; negative

Structure (SMILES): O[C@H]1C=Cc2c(cc3c4c(c5ccccc5cc24)-c2ccccc2-3)[C@@H]1O
- mutagenic call (Test System: AMES SALMONELLA TYPHIMURIUM, Strain/Indicator: TA100, Metabolic Activation: MOUSE, LIVER, S-9, 3-METHYLCHOLANTHRENE, Method: STANDARD PLATE): active; positive
- mutagenic call (Test System: AMES SALMONELLA TYPHIMURIUM, Strain/Indicator: TA100, Metabolic Activation: RAT, LIVER, S-9, 3-METHYLCHOLANTHRENE, Method: STANDARD PLATE): active; positive

Structure (SMILES): O=C([O-])[O-].[Mn+2]
- mutagenic call (Test System: AMES SALMONELLA TYPHIMURIUM, Strain/Indicator: TA97, Metabolic Activation: NONE, Method: PREINCUBATION): inactive; negative
- mutagenic call (Test System: AMES SALMONELLA TYPHIMURIUM, Strain/Indicator: TA97, Metabolic Activation: S-9, Method: PREINCUBATION): inactive; negative
- mutagenic call (Test System: AMES SALMONELLA TYPHIMURIUM, Strain/Indicator: TA102, Metabolic Activation: NONE, Method: PREINCUBATION): inactive; negative
- mutagenic call (Test System: AMES SALMONELLA TYPHIMURIUM, Strain/Indicator: TA102, Metabolic Activation: S-9, Method: PREINCUBATION): inactive; negative

Structure (SMILES): CN(C)CCN(C)N=O
- mutagenic call (Test System: AMES SALMONELLA TYPHIMURIUM, Strain/Indicator: TA1535, Metabolic Activation: HAMSTER, LIVER, S-9, Method: STANDARD PLATE): active; positive
- mutagenic call (Test System: AMES SALMONELLA TYPHIMURIUM, Strain/Indicator: TA1535, Metabolic Activation: RAT, LIVER, S-9, Method: STANDARD PLATE): inactive; negative

Structure (SMILES): C[C@H]1[C@H](C)CC[C@]2(C(=O)O[C@@H]3O[C@H](CO[C@@H]4O[C@H](CO)[C@@H](O[C@@H]5O[C@@H](C)[C@H](O)[C@@H](O)[C@H]5O)[C@H](O)[C@H]4O)[C@@H](O)[C@H](O)[C@H]3O)CC[C@]3(C)C(=CC[C@@H]4[C@@]5(C)C[C@@H](O)[C@H](O)[C@@](C)(CO)[C@@H]5CC[C@]43C)[C@H]12
- mutagenic call (End Point: IN VITRO CHROMOSOMAL ABERRATIONS, Test System: CHL CELLS, Metabolic Activation: NONE): inactive; negative
- mutagenic call (End Point: IN VITRO CHROMOSOMAL ABERRATIONS, Test System: CHL CELLS, Metabolic Activation: RAT, LIVER, S-9, AROCLOR 1254): inactive; negative
- mutagenic call (End Point: IN VIVO MICRONUCLEUS, Test System: BONE MARROW, Species: MOUSE, Strain/Sex: ICR, Route: GAVAGE): inactive; negative
- mutagenic call [1]: inactive; negative
- mutagenic call [2]: inactive; negative
- mutagenic call [3]: inactive; negative
- mutagenic call [4]: inactive; negative
- mutagenic call [5]: inactive; negative
- mutagenic call [6]: inactive; negative
- mutagenic call [7]: inactive; negative
- mutagenic call [8]: inactive; negative
- mutagenic call (Test System: E. COLI, Strain/Indicator: WP2UVRA, Metabolic Activation: RAT, LIVER, S-9, AROCLOR 1254, Method: STANDARD PLATE): inactive; negative
- mutagenic call (Test System: E.COLI, Strain/Indicator: WP2UVRA, Metabolic Activation: NONE, Method: STANDARD PLATE): inactive; negative

Structure (SMILES): O=C(O)C[C@H](O)C[C@H](O)/C=C/c1c(C2CC2)nc2ccccc2c1-c1ccc(F)cc1
- mutagenic call (Test System: AMES SALMONELLA TYPHIMURIUM, Strain/Indicator: TA98, Metabolic Activation: NONE, Method: PREINCUBATION): inactive; negative
- mutagenic call (Test System: AMES SALMONELLA TYPHIMURIUM, Strain/Indicator: TA98, Metabolic Activation: S-9, Method: PREINCUBATION): inactive; negative
- mutagenic call [9]: inactive; negative
- mutagenic call (Test System: AMES SALMONELLA TYPHIMURIUM, Strain/Indicator: TA100, Metabolic Activation: S-9, Method: PREINCUBATION): inactive; negative
- mutagenic call [10]: inactive; negative
- mutagenic call (Test System: AMES SALMONELLA TYPHIMURIUM, Strain/Indicator: TA1535, Metabolic Activation: S-9, Method: PREINCUBATION): inactive; negative
- mutagenic call (Test System: AMES SALMONELLA TYPHIMURIUM, Strain/Indicator: TA1537, Metabolic Activation: NONE, Method: PREINCUBATION): inactive; negative
- mutagenic call (Test System: AMES SALMONELLA TYPHIMURIUM, Strain/Indicator: TA1537, Metabolic Activation: S-9, Method: PREINCUBATION): inactive; negative
- mutagenic call (Test System: ESCHERICHIA COLI, Strain/Indicator: WP2 UVR A, Metabolic Activation: NONE, Method: PREINCUBATION): inactive; negative
- mutagenic call (Test System: ESCHERICHIA COLI, Strain/Indicator: WP2 UVR A, Metabolic Activation: S-9, Method: PREINCUBATION): inactive; negative
- mutagenic call (Test System: UDS RAT HEPATOCYTES IN VIVO, Strain/Indicator: CRJ:CD(SD)/THYMIDINE INCORPORATION, Metabolic Activation: NONE, Method: AUTORADIOGRAPHY): inactive; negative

Structure (SMILES): Cc1ccc(CC2CO2)cc1 (stereo unspecified)
- mutagenic call [9]: active; positive
- mutagenic call [3]: active; positive
- mutagenic call [10]: active; positive
- mutagenic call [5]: active; positive
